| melting point [°C] | SMILES |
| --- | --- |
| 213 | CCOC(=O)C1=C(CC)Nc2n[nH]cc2C1c1ccccc1Cl (centres unmarked) [Example 82, Ethyl 4-(2-chlorophenyl)-6-ethyl-4,7-dihydro-2H-pyrazolo[3,4-b]pyridine-5-carboxylate] |
| 209 | CCCCC1=C(C(=O)OCC)C(c2ccccc2Cl)c2c[nH]nc2N1 (centres unmarked) [Example 83, Ethyl 6-butyl-4-(2-chlorophenyl)-4,7-dihydro-2H-pyrazolo[3,4-b]pyridine-5-carboxylate] |
| 160 | COCC1=C(C(=O)OC)C(c2ccccc2Cl)c2c[nH]nc2N1 (centres unmarked) [Example 84, Methyl 4-(2-chlorophenyl)-4,7-dihydro-6-methoxymethyl-2H-pyrazolo[3,4-b]pyridine-5-carboxylate] |
| 214 | CCOC(=O)C1=C(c2ccccc2)Nc2n[nH]cc2C1c1ccccc1Cl (centres unmarked) [Example 85, Ethyl 4-(2-chlorophenyl)-4,7-dihydro-6-phenyl-2H-pyrazolo[3,4-b]pyridine-5-carboxylate] |
| 211 | CCOC(=O)C1=C(c2ccc(OC)cc2)Nc2n[nH]cc2C1c1ccccc1Cl (centres unmarked) [Example 86, Ethyl 4-(2-chlorophenyl)-4,7-dihydro-6-(4-methoxyphenyl)-2H-pyrazolo[3,4-b]pyridine-5-carboxylate] |
| 200 | CCOC(=O)C1=C(c2cccs2)Nc2n[nH]cc2C1c1ccccc1Cl (centres unmarked) [Example 87, Ethyl 4-(2-chlorophenyl)-4,7-dihydro-6-(thiophen-2-yl)-2H-pyrazolo[3,4-b]pyridine-5-carboxylate] |
| 247 | CCOC(=O)C1=C(Cc2ccccc2)Nc2n[nH]cc2C1c1ccccc1Cl (centres unmarked) [Example 88, Ethyl 6-benzyl-4-(2-chlorophenyl)-4,7-dihydro-2H-pyrazolo[3,4-b]pyridine-5-carboxylate] |
| 169 | CCOC(=O)C1=C(CC)Nc2n[nH]cc2C1c1ccccc1OC (centres unmarked) [Example 89, Ethyl 6-ethyl-4,7-dihydro-4-(2-methoxyphenyl)-2H-pyrazolo[3,4-b]pyridine-5-carboxylate] |
| 190 | CCCCC1=C(C(=O)OCC)C(c2ccccc2OC)c2c[nH]nc2N1 (centres unmarked) [Example 90, Ethyl 6-butyl-4,7-dihydro-4-(2-methoxyphenyl)-2H-pyrazolo[3,4-b]pyridine-5-carboxylate] |
| 195 | CCOC(=O)C1=C(c2ccccc2)Nc2n[nH]cc2C1c1ccccc1OC (centres unmarked) [Example 92, Ethyl 4,7-dihydro-4-(2-methoxyphenyl)-6-phenyl-2H-pyrazolo[3,4-b]pyridine-5-carboxylate] |
| 228 | CCCC1=C([N+](=O)[O-])C(c2ccccc2Cl)c2c[nH]nc2N1 (centres unmarked) [Example 93, 4-(2-Chlorophenyl)-4,7-dihydro-5-nitro-6-propyl-2H-pyrazolo[3,4-b]pyridine] |
| 124 | COc1ccc(C2=C(C#N)C(c3ccccc3Cl)c3c[nH]nc3N2)cc1 (centres unmarked) [Example 95, 4-(2-Chlorophenyl)-5-cyano-4,7-dihydro-6-(4-methoxyphenyl)-2H-pyrazolo[3,4-b]pyridine] |
| > 270 | O=C1OCC2=C1C(c1ccccc1Cl)c1c[nH]nc1N2 (centres unmarked) [Example 96, 4-(2-Chlorophenyl)-2,4,7,8-tetrahydrofurano[3,4-b]pyrazolo[4,3-e]pyridin-5-one] |
| 177 | CCCC1=C(C(=O)OCC)C(c2ccccc2O)c2c[nH]nc2N1 (centres unmarked) [Example 98, Ethyl 4,7-dihydro-4-(2-hydroxyphenyl)-6-propyl-2H-pyrazolo[3,4-b]pyridine-5-carboxylate] |
| 179 | CCCC1=C(C(=O)OCC)C(c2ccccc2N)c2c[nH]nc2N1 (centres unmarked) [Example 99, Ethyl 4-(2-aminophenyl)-4,7-dihydro-6-propyl-2H-pyrazolo[3,4-b]pyridine-5-carboxylate] |
| 166 | CCCC1=C(C(=O)OCC)C(c2cccc3ccsc23)c2c[nH]nc2N1 (centres unmarked) [Example 106, Ethyl 4-(benzo[b]thiophen-7-yl)-4,7-dihydro-6-propyl-2H-pyrazolo[3,4-b]pyridine-5-carboxylate] |
| 185 | CCCC1=C(C(=O)OCC)C(c2cccc(Cl)c2C)c2c[nH]nc2N1 (centres unmarked) [Example 111, Ethyl 4-(3-chloro-2-methylphenyl)-4,7-dihydro-6-propyl-2H-pyrazolo[3,4-b]pyridine-5-carboxylate] |
| 228 | CCOC(=O)C1=C(C)Nc2n[nH]cc2C1c1cccc2nonc12 (centres unmarked) [Example 113, Ethyl 4-(2,1,3-benzoxadiazol-4-yl)-4,7-dihydro-6-methyl-2H-pyrazolo[3,4-b]pyridine-5-carboxylate] |
| 190 | CCOC(=O)C1=C(c2ccccc2)Nc2n[nH]cc2C1c1cccc2nonc12 (centres unmarked) [Example 114, Ethyl 4-(2,1,3-benzoxadiazol-4-yl)-4,7-dihydro-6-phenyl-2H-pyrazolo[3,4-b]pyridine-5-carboxylate] |

Second part, the molecule before the results:

| SMILES | melting point [°C] |
| --- | --- |
| COCC1=C(C(=O)OC)C(c2ccccc2OC)c2c[nH]nc2N1 (centres unmarked) [Example 91, Methyl 4,7-dihydro-6-methoxymethyl-4-(2-methoxyphenyl)-2H-pyrazolo[3,4-b]pyridine-5-carboxylate] | 186 |
| CCCC1=C(C#N)C(c2ccccc2Cl)c2c[nH]nc2N1 (centres unmarked) [Example 94, 4-(2-Chlorophenyl)-5-cyano-4,7-dihydro-6-propyl-2H-pyrazolo[3,4-b]pyridine] | 248 |
| CCCC1=C(C(=O)OCC)C(c2ccccc2CC)c2cn[nH]c2N1 (centres unmarked) [Example 100, Ethyl 4-(2-ethylphenyl)-4,7-dihydro-6-propyl-1H-pyrazolo[3,4-b]pyridine-5-carboxylate] | 186 |
| CCCC1=C(C(=O)OCC)C(c2ccccc2CCC)c2cn[nH]c2N1 (centres unmarked) [Example 101, Ethyl 4,7-dihydro-6-propyl-4-(2-propylphenyl)-1H-pyrazolo[3,4-b]pyridine-5-carboxylate] | 197 |
| CCCCc1ccccc1C1C(C(=O)OCC)=C(CCC)Nc2[nH]ncc21 (centres unmarked) [Example 102, Ethyl 4-(2-butylphenyl)-4,7-dihydro-6-propyl-1H-pyrazolo[3,4-b]pyridine-5-carboxylate] | 175 |
| CCCC1=C(C(=O)OCC)C(c2cccc3c2CCC3)c2c[nH]nc2N1 (centres unmarked) [Example 103, Ethyl 4,7-dihydro-4-(indan-4-yl)-6-propyl-2H-pyrazolo[3,4-b]pyridine-5-carboxylate] | 181 to 183 |
| CCCC1=C(C(=O)OCC)C(C)(c2ccccc2)c2c[nH]nc2N1 (centres unmarked) [Example 108, Ethyl 4,7-dihydro-4-methyl-4-phenyl-6-propyl-2H-pyrazolo[3,4-b]pyridine-5-carboxylate] | 207 |
| CCCC1=C(C(=O)OCC)C(c2cccc3nsnc23)c2c[nH]nc2N1 (centres unmarked) [Example 112, Ethyl 4-(2,1,3-benzothiadiazol-4-yl)-4,7-dihydro-6-propyl-2H-pyrazolo[3,4-b]pyridine-5-carboxylate] | 180 |
| CCCC1=C([N+](=O)[O-])C(c2ccccc2Br)c2c[nH]nc2N1 (centres unmarked) [Example 118, 4-(2-Bromophenyl)-4,7-dihydro-5-nitro-6-propyl-2H-pyrazolo[3,4-b]pyridine] | 226 |
| CCCC1=C([N+](=O)[O-])C(c2ccccc2OC)c2c[nH]nc2N1 (centres unmarked) [Example 119, 4,7-Dihydro-4-(2-methoxyphenyl)-5-nitro-6-propyl-2H-pyrazolo[3,4-b]pyridine] | 223 |
| CCCC1=C([N+](=O)[O-])C(c2ccccc2SC)c2c[nH]nc2N1 (centres unmarked) [Example 120, 4,7-Dihydro-4-(2-methylthiophenyl)-5-nitro-6-propyl-2H-pyrazolo[3,4-b]pyridine] | 211 |
| CCCC1=C([N+](=O)[O-])C(c2cccc(Cl)c2Cl)c2c[nH]nc2N1 (centres unmarked) [Example 122, 4-(2,3-Dichlorophenyl)-4,7-dihydro-5-nitro-6-propyl-2H-pyrazolo[3,4-b]pyridine] | 239 |
| CCCC1=C([N+](=O)[O-])C(c2cccc3ccccc23)c2c[nH]nc2N1 (centres unmarked) [Example 123, 4,7-Dihydro-4-(naphthalen-1-yl)-5-nitro-6-propyl-2H-pyrazolo[3,4-b]pyridine] | 226 |
| CCCC1=C([N+](=O)[O-])C(c2cccc3c2OCCC3)c2c[nH]nc2N1 (centres unmarked) [Example 124, 4,7-Dihydro-4-(3,4-dihydro-2H-benzopyran-8-yl)-5-nitro-6-propyl-2H-pyrazolo[3,4-b]pyridine] | 234 |
| CC1=C([N+](=O)[O-])C(c2cccc(Cl)c2Cl)c2c[nH]nc2N1 (centres unmarked) [Example 125, 4-(2,3-Dichlorophenyl)-4,7-dihydro-6-methyl-5-nitro-2H-pyrazolo[3,4-b]pyridine] | > 270 |
| CCC1=C([N+](=O)[O-])C(c2cccc(Cl)c2Cl)c2c[nH]nc2N1 (centres unmarked) [Example 126, 4-(2,3-Dichlorophenyl)-6-ethyl-4,7-dihydro-5-nitro-2H-pyrazolo[3,4-b]pyridine] | 250 |
| CCCCC1=C([N+](=O)[O-])C(c2cccc(Cl)c2Cl)c2c[nH]nc2N1 (centres unmarked) [Example 127, 6-Butyl-4-(2,3-dichlorophenyl)-4,7-dihydro-5-nitro-2H-pyrazolo[3,4-b]pyridine] | 220 |
| CCCC1=C(C#N)C(c2ccccc2Br)c2c[nH]nc2N1 (centres unmarked) [Example 128, 4-(2-Bromophenyl)-5-cyano-4,7-dihydro-6-propyl-2H-pyrazolo[3,4-b]pyridine] | 237 |
| CCCC1=C(C#N)C(c2ccccc2OC)c2c[nH]nc2N1 (centres unmarked) [Example 129, 5-Cyano-4,7-dihydro-4-(2-methoxyphenyl)-6-propyl-2H-pyrazolo[3,4-b]pyridine] | 203 |
| CCCC1=C(C#N)C(c2ccccc2SC)c2c[nH]nc2N1 (centres unmarked) [Example 130, 5-Cyano-4,7-dihydro-4-(2-methylthiophenyl)-6-propyl-2H-pyrazolo[3,4-b]pyridine] | 216 |
| CCCC1=C(C#N)C(c2ccccc2C)c2c[nH]nc2N1 (centres unmarked) [Example 131, 5-Cyano-4,7-dihydro-4-(2-methylphenyl)-6-propyl-2H-pyrazolo[3,4-b]pyridine] | 230 |
| CCCC1=C(C#N)C(c2ccccc2[N+](=O)[O-])c2c[nH]nc2N1 (centres unmarked) [Example 132, 5-Cyano-4,7-dihydro-4-(2-nitrophenyl)-6-propyl-2H-pyrazolo[3,4-b]pyridine] | 216 |

From patent publication US6977262B2, “Dihydropyrazolopyridine compounds and pharmaceutical use thereof” (Mitsubishi Pharma Corporation, priority 2001, dated 2005)
